Measurements from patent US20220315554A1, “COMPOUNDS COMPRISING A […] LIGAND AND USE THEREOF” (priority 2019, published 2022).
Numbered stars: 1 amine (or outer) side, 2 acyl side, 3 side chain; on linkers, the order of the positions; unused ones are H or OH. Bridge positions count the residues as written; N and C are the ends. Square brackets hold non-standard residues; d marks the D form. Peptide text beside a SMILES is read from it. * marks the point of attachment. X42 = NCCNCC(CNCCN)C(=O)N[C@@H](CCC(=O)NCCCOCCOCCOCCCN*)C(=O)O; X52 = NCCOCCOCC(=O)N1CCN(Cc2cc(C[*:1])cc(C[*:2])c2)CC1; X39 = NCCOCCOCC(=O)NCCSCc1cc(C[*:1])cc(C[*:2])c1; mXylylene = c1cc(C[*:1])cc(C[*:2])c1; Suc = O=C(CCC(=O)[*:2])[*:1]; Nle = CCCC[C@H](N)C(=O)O; Hexanoyl = CCCCCC(=O)*

Tests used:
Human recombinant FAP = target: T1, Human recombinant FAP (Homo sapiens, UniProt Q12884); assay: FRET-based FAP protease activity assay; type: biochemical; design: purchased R&D systems 3715-SE; details: pIC50 Category (Activity), FRET substrate, 37° C.
T1 sequence (Q12884 1-760): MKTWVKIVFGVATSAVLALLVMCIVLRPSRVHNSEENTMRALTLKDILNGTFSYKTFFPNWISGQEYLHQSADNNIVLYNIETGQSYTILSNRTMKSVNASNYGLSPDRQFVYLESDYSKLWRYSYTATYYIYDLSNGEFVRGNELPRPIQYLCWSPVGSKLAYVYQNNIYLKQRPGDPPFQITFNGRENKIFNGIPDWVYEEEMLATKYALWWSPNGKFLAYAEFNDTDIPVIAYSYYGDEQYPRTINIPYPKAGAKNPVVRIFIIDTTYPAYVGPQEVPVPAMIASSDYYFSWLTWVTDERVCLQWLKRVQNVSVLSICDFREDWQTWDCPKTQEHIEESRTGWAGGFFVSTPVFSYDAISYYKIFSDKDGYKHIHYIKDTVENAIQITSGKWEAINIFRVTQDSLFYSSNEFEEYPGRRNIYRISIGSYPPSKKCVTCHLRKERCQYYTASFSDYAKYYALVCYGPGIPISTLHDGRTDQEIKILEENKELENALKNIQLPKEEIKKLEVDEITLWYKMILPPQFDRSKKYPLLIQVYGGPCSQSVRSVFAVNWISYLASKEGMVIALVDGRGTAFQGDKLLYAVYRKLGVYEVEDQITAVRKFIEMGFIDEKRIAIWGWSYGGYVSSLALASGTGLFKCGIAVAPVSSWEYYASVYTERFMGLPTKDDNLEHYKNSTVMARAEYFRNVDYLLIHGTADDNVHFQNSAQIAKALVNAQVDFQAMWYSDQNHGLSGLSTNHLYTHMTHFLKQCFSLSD

[1] = target: T2, FAP-expressing human WI-38 fibroblasts (Homo sapiens, UniProt Q12884); assay: Competitive FACS binding assay; details: pIC50 Category (FACS), competition with 3 nM Cy5-labeled compound, 4° C., 1 hour
T2 construct: FAP-expressing human WI-38 fibroblasts (ECACC) were cultured in EMEM; host or cells: WI-38 human fibroblasts
T2 sequence (Q12884 1-760): T1 sequence (Q12884 1-760)
Method: Cells were analyzed in an Attune NxT flow cytometer. […]

IC50 (Human recombinant FAP; recombinant human FAP)	IC50 ([1]; WI-38 fibroblasts)	Compound	IC50 (Human recombinant FAP)	IC50 [1]
–	–	CCCCCC(=O)N[C@@H]1CSCc2cc(CSCCNC(=O)CN3CCN(CC(=O)O)CCN(CC(=O)O)CCN(CC(=O)O)CC3)cc(c2)CSC[C@@H](C(=O)O)NC(=O)[C@H](Cc2ccccc2)NC(=O)[C@H](CCC(N)=O)NC(=O)[C@H]([C@@H](C)O)NC(=O)[C@@H]2CCCN2C(=O)[C@@H]2CCCN2C1=O [3BP-4109, Hex-[D-Cys-(tMeBn(DOTA-AET))-Pro-Pro-Thr-Gln-Phe-Cys]-OH]	< 10 nM	< 10 nM
–	–	CCCC(NC(=O)CCC(=O)NCCCOCCOCCOCCCNC(=O)CN1CCN(CC(=O)O)CCN(CC(=O)O)CCN(CC(=O)O)CC1)C(=O)N[C@H]1CSCc2cc(CSCCNC(=O)CN3CCN(CC(=O)O)CCN(CC(=O)O)CCN(CC(=O)O)CC3)cc(c2)CSC[C@@H](C(=O)O)NC(=O)[C@H](Cc2ccccc2)NC(=O)[C@H](CCC(N)=O)NC(=O)[C@H]([C@@H](C)O)NC(=O)[C@@H]2CCCN2C(=O)[C@@H]2CCCN2C1=O (stereo partly drawn) [3BP-4386, DOTA-Ttds-Nle-[Cys(tMeBn(DOTA-AET))-Pro-Pro-Thr-Gln-Phe-Cys]-OH]	10 to 79.4 nM	10 to 79.4 nM
< 10 nM	< 10 nM	CSCC[C@H](NC(C)=O)C(=O)N[C@H]1CSCc2cccc(c2)CSC[C@@H](C(=O)N[C@@H](CC(=O)O)C(=O)N[C@@H](Cc2c[nH]cn2)C(=O)N[C@@H](Cc2ccccc2)C(=O)N[C@@H](CCCNC(=N)N)C(=O)N[C@@H](C)C(N)=O)NC(=O)[C@H](Cc2ccccc2)NC(=O)[C@H](CCC(=O)O)NC(=O)[C@H]([C@@H](C)O)NC(=O)[C@@H]2CCCN2C(=O)[C@@H]2CCCN2C1=O [3BP-3198, Ac-Met-[Cys(3MeBn)-Pro-Pro-Thr-Glu-Phe-Cys]-Asp-His-Phe-Arg-Ala-NH2] (Ac-MCPPTEFCDHFRA-NH2; linker 2-8 via mXylylene)	–	–
10 to 79.4 nM	10 to 79.4 nM	CCCCCC(=O)N[C@H]1CSCc2cccc(c2)CSC[C@@H](C(=O)O)NC(=O)[C@H](Cc2ccccc2)NC(=O)[C@H](CCC(=O)O)NC(=O)[C@H]([C@@H](C)O)NC(=O)[C@@H]2CCCN2C(=O)[C@@H]2CCCN2C1=O [3BP-3370, Hex-[Cys(3MeBn)-Pro-Pro-Thr-Glu-Phe-Cys]-OH] (Hexanoyl-CPPTEFC-OH; linker 1-7 via mXylylene)	–	–
–	–	CCCCCC(=O)N[C@H]1CSCc2cc(cc(CN3CCN(C(=O)CN4CCN5CCN6CCN(CC4)CC(=O)[O][Eu]([O]C(=O)C6)[O]C(=O)C5)CC3)c2)CSC[C@@H](C(=O)N[C@@H](CC(=O)O)C(N)=O)NC(=O)[C@H](Cc2ccccc2)NC(=O)[C@H](CCC(N)=O)NC(=O)[C@H]([C@@H](C)O)NC(=O)[C@@H]2CCCN2C(=O)[C@@H]2CCCN2C1 [3BP-3661, Europium-Complex of Hex-[Cys(tMeBn(DOTA-PP))-Pro-Pro-Thr-Gln-Phe-Cys]-Asp-NH2]	< 10 nM	< 10 nM
< 10 nM	< 10 nM	CSCC[C@H](NC(C)=O)C(=O)N[C@H]1CSCc2cccc(c2)CSC[C@@H](C(=O)N[C@@H](CC(=O)O)C(=O)N[C@@H](Cc2c[nH]cn2)C(=O)N[C@@H](Cc2ccccc2)C(=O)N[C@@H](CCCNC(=N)N)C(=O)N[C@H](CC(=O)O)C(N)=O)NC(=O)[C@H](Cc2ccccc2)NC(=O)[C@H](CCC(=O)O)NC(=O)[C@H]([C@@H](C)O)NC(=O)[C@@H]2CCCN2C(=O)[C@@H]2CCCN2C1=O [3BP-3213, Ac-Met-[Cys(3MeBn)-Pro-Pro-Thr-Glu-Phe-Cys]-Asp-His-Phe-Arg-asp-NH2] (Ac-MCPPTEFCDHFR[dD]-NH2; linker 2-8 via mXylylene)	–	–
–	–	CCCC[C@H](NC(=O)CCC(=O)NCCCOCCOCCOCCCNC(=O)CC[C@H](NC(=O)C(CNCCN)CNCCN)C(=O)O)C(=O)N[C@H]1CSCc2cccc(c2)CSC[C@@H](C(=O)O)NC(=O)[C@H](Cc2ccccc2)NC(=O)[C@H](CCC(=O)O)NC(=O)[C@H]([C@@H](C)O)NC(=O)[C@@H]2CCCN2C(=O)[C@@H]2CCCN2C1=O [3BP-4245, N4Ac-gGlu-Ttds-Nle-[Cys-(3MeBn)-Pro-Pro-Thr-Gln-Phe-Cys]-OH] ({X42-Suc}-[Nle]CPPTEFC-OH; linker 2-8 via mXylylene)	10 to 79.4 nM	10 to 79.4 nM
–	–	CCCCCC(=O)N[C@H]1CSCc2cc(cc(CN3CCN(C(=O)CN4CCN5CCN6CCN(CC4)CC(=O)[O][In]([O]C(=O)C6)[O]C(=O)C5)CC3)c2)CSC[C@@H](C(=O)O)NC(=O)[C@H](Cc2ccccc2)NC(=O)[C@H](CCC(N)=O)NC(=O)[C@H]([C@@H](C)O)NC(=O)[C@@H]2CCCN2C(=O)[C@@H]2CCCN2C1=O [3BP-3770, Hex-[Cys(tMeBn(InDOTA-PP))-Pro-Pro-Thr-Gln-Phe-Cys]-OH]	< 10 nM	< 10 nM
–	–	CCCCCC(=O)N[C@H]1CSCc2cc(CSCCNC(=O)COCCOCCN)cc(c2)CSC[C@@H](C(=O)N[C@@H](CC(=O)O)C(N)=O)NC(=O)[C@H](Cc2ccccc2)NC(=O)[C@H](CCC(N)=O)NC(=O)[C@H]([C@@H](C)O)NC(=O)[C@@H]2CCCN2C(=O)[C@@H]2CCCN2C1=O [3BP-4003, Hex-[Cys-(tMeBn(H-O2Oc-AET))-Pro-Pro-Thr-Gln-Phe-Cys]-Asp-NH2] (Hexanoyl-CPPTQFCD-NH2; linker 1-7 via X39)	< 10 nM	< 10 nM
–	–	CCCCCC(=O)N[C@H]1CSCc2cc(CSCCNC(=O)CCCC(=O)Nc3ccc(C[C@H](CN(CCN(CC(=O)O)CC(=O)O)CC(=O)O)N(CC(=O)O)CC(=O)O)cc3)cc(c2)CSC[C@@H](C(=O)O)NC(=O)[C@H](Cc2ccccc2)NC(=O)[C@H](CCC(N)=O)NC(=O)[C@H]([C@@H](C)O)NC(=O)[C@@H]2CCCN2C(=O)[C@@H]2CCCN2C1=O [3BP-4366, Hex-[Cys-(tMeBn(DTPABzl-Glutar-AET))-Pro-Pro-Thr-Gln-Phe-Cys]-OH]	100 to 794 nM	100 to 794 nM
100 to 794 nM	100 to 794 nM	CSCC[C@H](NC(C)=O)C(=O)N[C@H]1CSCc2cccc(c2)CSC[C@@H](C(=O)N[C@@H](CC(=O)O)C(=O)N[C@@H](Cc2c[nH]cn2)C(=O)N[C@@H](Cc2ccccc2)C(=O)N[C@@H](CCCNC(=N)N)C(=O)N[C@@H](CC(=O)O)C(N)=O)NC(=O)[C@H](Cc2ccccc2)NC(=O)[C@H](CCC(=O)O)NC(=O)[C@H]([C@@H](C)O)NC(=O)[C@@H]2CCCN2C(=O)[C@H]2CCCN2C1=O [3BP-3176, Ac-Met-[Cys(3MeBn)-pro-Pro-Thr-Glu-Phe-Cys]-Asp-His-Phe-Arg-Asp-NH2] (Ac-MC[dP]PTEFCDHFRD-NH2; linker 2-8 via mXylylene)	–	–
–	–	CCCCCC(=O)N[C@H]1CSCc2cc(CSCCNC(=O)CN3CCN4CCN5CCN(CC3)CC(=O)[O][Lu]([O]C(=O)C4)[O]C(=O)C5)cc(c2)CSC[C@@H](C(=O)N[C@@H](CC(=O)O)C(=O)NCCCC(=O)N[C@@H](CCCNC(=N)N)C(=O)NCCCOCCOCCOCCCNC(=O)CCC(=O)NCCCOCCOCCOCCCNC(=O)CCC(=O)NCCCOCCOCCOCCCNC(=O)CCC(=O)N[C@@H](CCCCNC(=O)c2ccc(-c3c4ccc(=N)c(S(=O)(=O)O)c-4oc4c(S(=O)(=O)O)c(N)ccc34)c(C(=O)O)c2)C(N)=O)NC[C@H](Cc2ccccc2)NC(=O)[C@H](CCC(N)=O)NC(=O)C([C@@H](C)O)NC(=O)[C@@H]2CCCN2C(=O)[C@@H]2CCCC2C1=O (stereo partly drawn) [3BP-4373, Hex-[Cys(tMeBn(LuDOTA-AET))-Pro-Pro-Thr-Gln-Phe-Cys]-Asp-Gab-Arg-Ttds-Ttds-Ttds-Lys(AF488)-NH2]	< 10 nM	10 to 79.4 nM
–	–	CCCCCC(=O)N[C@H]1CSCc2cc(cc(CN3CCN(C(=O)COCCOCCN)CC3)c2)CSC[C@@H](C(=O)N[C@@H](CC(=O)O)C(N)=O)NC(=O)[C@H](Cc2ccccc2)NC(=O)[C@H](CCC(N)=O)NC(=O)[C@H]([C@@H](C)O)NC(=O)[C@@H]2CCCN2C(=O)[C@@H]2CCCN2C1=O [3BP-3967, Hex-[Cys-(tMeBn(H-O2Oc-PP))-Pro-Pro-Thr-Gln-Phe-Cys]-Asp-NH2] (Hexanoyl-CPPTQFCD-NH2; linker 1-7 via X52)	< 10 nM	< 10 nM
–	–	CCCCCC(=O)N[C@H]1CSCc2cc(CSCCNC(=O)[C@H](CO)NC(=O)[C@H](CO)NC(=O)[C@H](CO)NC(=O)CS)cc(c2)CSC[C@@H](C(=O)O)NC(=O)[C@H](Cc2ccccc2)NC(=O)[C@H](CCC(N)=O)NC(=O)[C@H]([C@@H](C)O)NC(=O)[C@@H]2CCCN2C(=O)[C@@H]2CCCN2C1=O [3BP-4301, Hex-[Cys-(tMeBn(H-SAc-Ser-Ser-Ser-AET))-Pro-Pro-Thr-Gln-Phe-Cys]-OH]	10 to 79.4 nM	10 to 79.4 nM
